# Several values for one entry are separate records, joined by “and”; a condition that tells them apart may be missing. Identical values can stand only once. Results filed as inconclusive are left out.
# System: CD8F1 mice, subcutaneous mammary adenocarcinoma, T/C%
# Assay: NCI In Vivo Anticancer Drug Screen. Data for tumor model Mammary Adenocarcinoma CD8F1 (subcutaneous) in CD8F1
# Details: higher = larger tumour
# Outline: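 Compound-treated versus vehicle-treated mice with transplantable tumors; survival or tumor size compared as T/C.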
# [1] = endpoint: median tumor weight change, dose: 62.0 mg/kg/injection, schedule: Q01DX001 (ip), vehicle: saline with Tween-80
# [2] = endpoint: median tumor weight change, dose: 62.5 mg/kg/injection, schedule: Q01DX001 (ip), vehicle: saline with Tween-80
# [3] = endpoint: median tumor weight change, dose: 125.0 mg/kg/injection, schedule: Q01DX001 (ip), vehicle: saline with Tween-80
# [4] = endpoint: median tumor weight change, dose: 125.0 mg/kg/injection, schedule: Q01DX001 (ip), vehicle: Klucel (hydroxypropylcellulose) (HPC)
structure (smiles),measurement,setting,value
O=C(Nc1ccc(C2=NCCN2)cc1)c1ccc(C(=O)Nc2ccc(C3=NCCN3)cc2)c(Cl)c1,T/C,"endpoint: mean tumor weight, dose: 6.25 mg/kg/injection, schedule: Q07DX004 (ip), vehicle: saline with Tween-80",70 % of control
same,T/C,"endpoint: mean tumor weight, dose: 12.5 mg/kg/injection, schedule: Q07DX004 (ip), vehicle: saline with Tween-80",77 % of control
same,T/C,"endpoint: mean tumor weight, dose: 25.0 mg/kg/injection, schedule: Q07DX004 (ip), vehicle: saline with Tween-80",71 % of control
COc1cccc2c1C(=O)c1c(O)c3c(c(O)c1C2=O)C[C@@](O)(C(O)CO)C[C@@H]3OC1CC(N)C(O)C(C)O1 (stereo partly drawn),T/C,"endpoint: mean tumor weight, dose: 6.0 mg/kg/injection, schedule: Q07DX006 (ip), vehicle: saline",33 % of control
same,T/C,"endpoint: mean tumor weight, dose: 12.0 mg/kg/injection, schedule: Q07DX006 (ip), vehicle: saline",45 % of control
same,T/C,"endpoint: median tumor weight (est.), dose: 3.0 mg/kg/injection, schedule: Q07DX005 (ip), vehicle: saline",77 % of control
same,T/C,"endpoint: median tumor weight (est.), dose: 6.0 mg/kg/injection, schedule: Q07DX005 (ip), vehicle: saline",48 % of control
same,T/C,"endpoint: median tumor weight (est.), dose: 12.0 mg/kg/injection, schedule: Q07DX005 (ip), vehicle: saline",26 % of control
CN=S(=O)(OCCCCCOS(=O)(=NC)c1ccccc1)c1ccccc1 (stereo not drawn),T/C,[1],121 % of control
same,T/C,[2],59 % of control
same,T/C,"endpoint: median tumor weight change, dose: 250.0 mg/kg/injection, schedule: Q01DX001 (ip), vehicle: saline with Tween-80",63 % of control and 83 % of control
same,T/C,"endpoint: median tumor weight change, dose: 500.0 mg/kg/injection, schedule: Q01DX001 (ip), vehicle: saline with Tween-80",20 % of control
O=C1C(O)=C(c2ccccc2)C(=O)C(O)=C1c1ccccc1,T/C,"endpoint: median tumor weight change, dose: 31.0 mg/kg/injection, schedule: Q01DX001 (ip), vehicle: saline with Tween-80",105 % of control
same,T/C,[1],58 % of control
same,T/C,[3],104 % of control
COC(C(=O)C(O)C(C)O)C1Cc2cc3cc(OC4CC(OC(C)=O)C(OC5CC(O)C(OC)C(C)O5)C(C)O4)cc(O)c3c(O)c2C(=O)C1OC1CC(OC2CC(OC3CC(C)(O)C(OC(=O)C(C)C)C(C)O3)C(O)C(C)O2)C(O)C(C)O1 (stereo not drawn),T/C,"endpoint: median tumor weight (est.), dose: 0.5 mg/kg/injection, schedule: Q07DX005 (ip), vehicle: saline",76 % of control
same,T/C,"endpoint: median tumor weight (est.), dose: 1.0 mg/kg/injection, schedule: Q07DX005 (ip), vehicle: saline",30 % of control
same,T/C,"endpoint: median tumor weight (est.), dose: 2.0 mg/kg/injection, schedule: Q07DX005 (ip), vehicle: saline",34 % of control
O=[N+]([O-])O.[Ga],T/C,"endpoint: mean tumor weight, dose: 75.0 mg/kg/injection, schedule: Q01DX009 (ip), vehicle: saline",120 % of control
same,T/C,"endpoint: median tumor weight (est.), dose: 6.25 mg/kg/injection, schedule: Q07DX005 (ip), vehicle: saline",94 % of control
same,T/C,"endpoint: median tumor weight (est.), dose: 12.5 mg/kg/injection, schedule: Q07DX005 (ip), vehicle: saline",114 % of control
same,T/C,"endpoint: median tumor weight (est.), dose: 25.0 mg/kg/injection, schedule: Q04DX005 (ip), vehicle: saline",91 % of control
same,T/C,"endpoint: median tumor weight (est.), dose: 25.0 mg/kg/injection, schedule: Q07DX004 (ip), vehicle: saline",120 % of control
same,T/C,"endpoint: median tumor weight (est.), dose: 25.0 mg/kg/injection, schedule: Q07DX005 (ip), vehicle: saline",120 % of control
same,T/C,"endpoint: median tumor weight (est.), dose: 50.0 mg/kg/injection, schedule: Q07DX004 (ip), vehicle: saline",184 % of control
same,T/C,"endpoint: median tumor weight (est.), dose: 100.0 mg/kg/injection, schedule: Q04DX005 (ip), vehicle: saline",153 % of control
NC(C(=O)O)c1ccc(CBr)cc1 (stereo not drawn),T/C,[3],106 % of control
O=C(O)C1(NO)CCCCC1,T/C,[4],76 % of control
same,T/C,"endpoint: median tumor weight change, dose: 250.0 mg/kg/injection, schedule: Q01DX001 (ip), vehicle: Klucel (hydroxypropylcellulose) (HPC)",64 % of control
same,T/C,"endpoint: median tumor weight change, dose: 500.0 mg/kg/injection, schedule: Q01DX001 (ip), vehicle: Klucel (hydroxypropylcellulose) (HPC)",61 % of control
same,T/C,"endpoint: median tumor weight change, dose: 1000.0 mg/kg/injection, schedule: Q01DX001 (ip), vehicle: Klucel (hydroxypropylcellulose) (HPC)",76 % of control
same,T/C,"endpoint: median tumor weight change, dose: 2000.0 mg/kg/injection, schedule: Q01DX001 (ip), vehicle: Klucel (hydroxypropylcellulose) (HPC)",124 % of control
C/C(=N\N=C(/[Se])N1CC2CCC(CC2)C1)c1ccccn1,T/C,"endpoint: median tumor weight change, dose: 8.0 mg/kg/injection, schedule: Q01DX001 (ip), vehicle: Klucel (hydroxypropylcellulose) (HPC)",86 % of control
same,T/C,"endpoint: median tumor weight change, dose: 15.62 mg/kg/injection, schedule: Q01DX001 (ip), vehicle: Klucel (hydroxypropylcellulose) (HPC)",114 % of control
same,T/C,"endpoint: median tumor weight change, dose: 15.62 mg/kg/injection, schedule: Q01DX001 (ip), vehicle: saline with Tween-80",109 % of control
same,T/C,"endpoint: median tumor weight change, dose: 16.0 mg/kg/injection, schedule: Q01DX001 (ip), vehicle: Klucel (hydroxypropylcellulose) (HPC)",27 % of control
same,T/C,"endpoint: median tumor weight change, dose: 31.0 mg/kg/injection, schedule: Q01DX001 (ip), vehicle: Klucel (hydroxypropylcellulose) (HPC)",55 % of control
same,T/C,"endpoint: median tumor weight change, dose: 31.25 mg/kg/injection, schedule: Q01DX001 (ip), vehicle: saline with Tween-80",87 % of control
same,T/C,"endpoint: median tumor weight change, dose: 62.0 mg/kg/injection, schedule: Q01DX001 (ip), vehicle: Klucel (hydroxypropylcellulose) (HPC)",18 % of control
same,T/C,"endpoint: median tumor weight change, dose: 62.5 mg/kg/injection, schedule: Q01DX001 (ip), vehicle: Klucel (hydroxypropylcellulose) (HPC)",122 % of control
same,T/C,[2],65 % of control
same,T/C,[4],111 % of control
same,T/C,[3],59 % of control
Nc1cc2[nH]cnc2c(=O)[nH]1,T/C,"endpoint: mean tumor weight, dose: 20.0 mg/kg/injection, schedule: Q07DX006 (ip), vehicle: saline",83 % of control
same,T/C,"endpoint: mean tumor weight, dose: 40.0 mg/kg/injection, schedule: Q07DX006 (ip), vehicle: saline",50 % of control
same,T/C,"endpoint: mean tumor weight, dose: 80.0 mg/kg/injection, schedule: Q07DX006 (ip), vehicle: saline",76 % of control
same,T/C,"endpoint: median tumor weight (est.), dose: 12.5 mg/kg/injection, schedule: Q07DX005 (ip), vehicle: suspension in saline",56 % of control
same,T/C,"endpoint: median tumor weight (est.), dose: 25.0 mg/kg/injection, schedule: Q07DX005 (ip), vehicle: suspension in saline",79 % of control
same,T/C,"endpoint: median tumor weight (est.), dose: 50.0 mg/kg/injection, schedule: Q07DX005 (ip), vehicle: suspension in saline",56 % of control
same,T/C,"endpoint: median tumor weight (est.), dose: 100.0 mg/kg/injection, schedule: Q07DX005 (ip), vehicle: suspension in saline",80 % of control
same,T/C,"endpoint: median tumor weight (est.), dose: 200.0 mg/kg/injection, schedule: Q07DX005 (ip), vehicle: suspension in saline",64 % of control
OC1OC2COC(c3ccccc3)OC2C(O)C1O (stereo not drawn),T/C,"endpoint: median tumor weight change, dose: 50.0 mg/kg/injection, schedule: Q01DX001 (ip), vehicle: water",105 % of control
same,T/C,"endpoint: median tumor weight change, dose: 100.0 mg/kg/injection, schedule: Q01DX001 (ip), vehicle: water",80 % of control
same,T/C,"endpoint: median tumor weight change, dose: 200.0 mg/kg/injection, schedule: Q01DX001 (ip), vehicle: water",101 % of control
same,T/C,"endpoint: median tumor weight change, dose: 400.0 mg/kg/injection, schedule: Q01DX001 (ip), vehicle: water",59 % of control
same,T/C,"endpoint: median tumor weight change, dose: 800.0 mg/kg/injection, schedule: Q01DX001 (ip), vehicle: water",62 % of control
same,T/C,"endpoint: median tumor weight change, dose: 1600.0 mg/kg/injection, schedule: Q01DX001 (ip), vehicle: water",90 % of control
CC(C)CCCCCCCCCCCCC(=O)NCC(=O)NC1C(C)OC(Nc2ncnc3nc[nH]c23)C(O)C1O (stereo not drawn),T/C,"endpoint: median tumor weight (est.), dose: 8.0 mg/kg/injection, schedule: Q07DX005 (ip), vehicle: distilled water + Tween-80",51 % of control
same,T/C,"endpoint: median tumor weight (est.), dose: 16.0 mg/kg/injection, schedule: Q07DX005 (ip), vehicle: distilled water + Tween-80",12 % of control
NNC(=S)N/N=C/c1ccccn1,T/C,"endpoint: median tumor weight (est.), dose: 6.25 mg/kg/injection, schedule: Q07DX005 (ip), vehicle: saline with Tween-80",112 % of control
same,T/C,"endpoint: median tumor weight (est.), dose: 12.5 mg/kg/injection, schedule: Q07DX005 (ip), vehicle: saline with Tween-80",84 % of control
same,T/C,"endpoint: median tumor weight (est.), dose: 25.0 mg/kg/injection, schedule: Q07DX005 (ip), vehicle: saline with Tween-80",81 % of control
same,T/C,"endpoint: median tumor weight (est.), dose: 50.0 mg/kg/injection, schedule: Q07DX005 (ip), vehicle: saline with Tween-80",59 % of control
CC/C(=C(/CC)c1ccc(O)cc1)c1ccc(O)cc1,T/C,"endpoint: median tumor weight (est.), dose: 12.5 mg/kg/injection, schedule: Q07DX005 (ip), vehicle: water",70 % of control
same,T/C,"endpoint: median tumor weight (est.), dose: 25.0 mg/kg/injection, schedule: Q07DX005 (ip), vehicle: water",66 % of control
same,T/C,"endpoint: median tumor weight (est.), dose: 50.0 mg/kg/injection, schedule: Q07DX005 (ip), vehicle: water",111 % of control
same,T/C,"endpoint: median tumor weight (est.), dose: 100.0 mg/kg/injection, schedule: Q07DX005 (ip), vehicle: water",101 % of control
same,T/C,"endpoint: median tumor weight (est.), dose: 200.0 mg/kg/injection, schedule: Q07DX005 (ip), vehicle: water",49 % of control

# From PubChem BioAssay AID220 (DTP/NCI, 2004)
